Values joined by “and” are separate entries in the source; they are usually repeats but may differ in a detail not shown here. Identical values can stand only once. Like-named read-outs stand apart in the source and are kept apart here.
Legend:
A. baumannii = assay: MIC, broth microdilution, CDC/FDA Antibiotic Resistance Isolate Bank (Example 7, Tables 9, 13, 14); assay type: cell-based, Acinetobacter baumannii
Enterobacterales = assay: MIC, broth microdilution, CDC/FDA Antibiotic Resistance Isolate Bank (Example 7, Tables 8, 11, 12); assay type: cell-based
[1] = 154 strains of Enterobacterales

In the case of colistin, the MIC (A. baumannii) is reported as 0.5 µg/mL and 1 µg/mL, the MIC50 (A. baumannii; 55 isolates of A. baumannii) is reported as 1 µg/mL and the MIC80 (A. baumannii; 55 isolates of A. baumannii) is reported as 2 µg/mL. For the same substance, the MIC90 (A. baumannii; 55 isolates of A. baumannii) was 2 µg/mL, the MIC (A. baumannii; A. baumannii KUB No. 5567, AR Bank #70, OXA-58, OXA-100) was 0.25 µg/mL and the MIC (A. baumannii; A. baumannii KUB No. 5575, AR Bank #78, OXA-71) was 1 µg/mL. For the same substance, the MIC (A. baumannii; A. baumannii KUB No. 5580, AR Bank #83, OXA-23, OXA-69, NDM-1) was 1 µg/mL, the MIC (A. baumannii; A. baumannii KUB No. 5585, AR Bank #88, OXA-64, NDM-1) was 1 µg/mL and the MIC (A. baumannii; A. baumannii KUB No. 5598, AR Bank #101, OXA-24, OXA-65) was 1 µg/mL. For the same substance, the MIC (A. baumannii; A. baumannii KUB No. 5599, AR Bank #102, OXA-66) was 1 µg/mL, the MIC (A. baumannii; A. baumannii KUB No. 5706, AR Bank #273, OXA-23, OXA-66) was 1 µg/mL and the MIC (A. baumannii; A. baumannii KUB No. 5707, AR Bank #274, OXA-66, OXA-72) was 0.5 µg/mL. It also gave an MIC (A. baumannii; A. baumannii KUB No. 5708, AR Bank #275, OXA-23, OXA-66) of 1 µg/mL, an MIC (A. baumannii; A. baumannii KUB No. 5709, AR Bank #276, no carbapenemase genes (-)) of 2 µg/mL and an MIC (A. baumannii; A. baumannii KUB No. 5710, AR Bank #277, OXA-24, OXA-65) of 0.5 µg/mL. It also gave an MIC (A. baumannii; A. baumannii KUB No. 5711, AR Bank #278, OXA-23, OXA-66) of 1 µg/mL, an MIC (A. baumannii; A. baumannii KUB No. 5712, AR Bank #279, OXA-23, OXA-66) of 1 µg/mL and an MIC (A. baumannii; A. baumannii KUB No. 5713, AR Bank #280, OXA-66) of 1 µg/mL. It also gave an MIC (A. baumannii; A. baumannii KUB No. 5714, AR Bank #281, OXA-82) of 1 µg/mL, an MIC (A. baumannii; A. baumannii KUB No. 5715, AR Bank #282, OXA-23, OXA-66) of 1 µg/mL and an MIC (A. baumannii; A. baumannii KUB No. 5716, AR Bank #283, OXA-23, OXA-66) of 1 µg/mL. The MIC (A. baumannii; A. baumannii KUB No. 5717, AR Bank #284, OXA-24, OXA-65) was 1 µg/mL, the MIC (A. baumannii; A. baumannii KUB No. 5718, AR Bank #285, OXA-24, OXA-65) was 0.5 µg/mL and the MIC (A. baumannii; KUB No. 5719, AR Bank #286) was 1 µg/mL. The MIC (A. baumannii; KUB No. 5720, AR Bank #287) was 1 µg/mL, the MIC (A. baumannii; KUB No. 5721, AR Bank #288) was >64 µg/mL and the MIC (A. baumannii; KUB No. 5722, AR Bank #259) was 2 µg/mL. The MIC (A. baumannii; KUB No. 5723, AR Bank #290) was 1 µg/mL, the MIC (A. baumannii; KUB No. 5724, AR Bank #291) was 1 µg/mL and the MIC (A. baumannii; KUB No. 5725, AR Bank #292) was 1 µg/mL. It also gave an MIC (A. baumannii; KUB No. 5726, AR Bank #293) of 1 µg/mL, an MIC (A. baumannii; KUB No. 5727, AR Bank #294) of 1 µg/mL and an MIC (A. baumannii; KUB No. 5728, AR Bank #295) of 1 µg/mL. The MIC (A. baumannii; KUB No. 5729, AR Bank #296) was 2 µg/mL, the MIC (A. baumannii; KUB No. 5730, AR Bank #297) was 2 µg/mL and the MIC (A. baumannii; KUB No. 5731, AR Bank #298) was 0.5 µg/mL. It also gave an MIC (A. baumannii; KUB No. 5732, AR Bank #299) of 2 µg/mL, an MIC (A. baumannii; KUB No. 5733, AR Bank #300) of 1 µg/mL and an MIC (A. baumannii; KUB No. 5734, AR Bank #301) of 1 µg/mL. The MIC (A. baumannii; KUB No. 5735, AR Bank #302) was 1 µg/mL, the MIC (A. baumannii; KUB No. 5736, AR Bank #303) was >64 µg/mL and the MIC (A. baumannii; KUB No. 5737, AR Bank #304) was 4 µg/mL. The MIC (A. baumannii; KUB No. 5738, AR Bank #305) was 2 µg/mL, the MIC (A. baumannii; KUB No. 5739, AR Bank #306) was 1 µg/mL and the MIC (A. baumannii; KUB No. 5740, AR Bank #307) was 2 µg/mL. It also gave an MIC (A. baumannii; KUB No. 5741, AR Bank #308) of 1 µg/mL, an MIC (A. baumannii; KUB No. 5742, AR Bank #309) of 2 µg/mL and an MIC (A. baumannii; KUB No. 5743, AR Bank #310) of 1 µg/mL. The MIC (A. baumannii; KUB No. 5744, AR Bank #311) was 1 µg/mL, the MIC (A. baumannii; KUB No. 5745, AR Bank #312) was 1 µg/mL and the MIC (A. baumannii; KUB No. 5746, AR Bank #313) was 2 µg/mL. For the same substance, the MIC50 (Enterobacterales; [1]) was 0.5 µg/mL, the MIC80 (Enterobacterales; [1]) was 8 µg/mL and the MIC90 (Enterobacterales; [1]) was >64 µg/mL. It also gave an MIC (Enterobacterales; Citrobacter fremidii, KUB No. 5613, AR Bank # 116) of 1 µg/mL, an MIC (Enterobacterales; Enterobacter aerogenes, KUB No. 5559, AR Bank # 62) of 8 µg/mL and an MIC (Enterobacterales; Enterobacter aerogenes, KUB No. 5571, AR Bank # 74) of 0.5 µg/mL. It also gave an MIC (Enterobacterales; Enterobacter cloacae KUB No. 5792, AR Bank #448) of 0.5 µg/mL, an MIC (Enterobacterales; Enterobacter cloacae KUB No. 5807, AR Bank #501) of 0.5 µg/mL and an MIC (Enterobacterales; Enterobacter cloacae KUB No. 5808, AR Bank #502) of 0.5 µg/mL. For the same substance, the MIC (Enterobacterales; Enterobacter cloacae complex, KUB No. 5661, AR Bank # 164) was 0.5 µg/mL, the MIC (Enterobacterales; Enterobacter cloacae group, KUB No. 5629, AR Bank # 132) was 1 µg/mL and the MIC (Enterobacterales; Enterobacter cloacae, KUB No. 5529, AR Bank# 32) was 0.5 µg/mL. It also gave an MIC (Enterobacterales; Enterobacter cloacae, KUB No. 5535, AR Bank# 38) of 0.5 µg/mL, an MIC (Enterobacterales; Enterobacter cloacae, KUB No. 5557, AR Bank# 60) of 0.5 µg/mL and an MIC (Enterobacterales; Enterobacter cloacae, KUB No. 5562, AR Bank # 65) of 0.5 µg/mL. The MIC (Enterobacterales; Enterobacter cloacae, KUB No. 5570, AR Bank # 73) was 8 µg/mL, the MIC (Enterobacterales; Enterobacter cloacae, KUB No. 5590, AR Bank # 93) was 1 µg/mL and the MIC (Enterobacterales; Enterobacter cloacae, KUB No. 5660, AR Bank # 163) was 8 µg/mL.

Source: patent EP4635500A1, “THERAPEUTIC AGENT FOR BACTERIAL INFECTION” (Sumitomo Pharma Co., Ltd., priority 2022, dated 2024)
